The source of these data is patent publication US20060046966A1, “Antipicornaviral compounds and compositions, their pharmaceutical uses, and materials for their synthesis” (Agouron Pharmaceuticals, Inc., priority 1998, published 2006).

Where two headings read alike, the source gives them in different places.

In one series the test system is HRV (1A). In words: Antirhinoviral H1-HeLa cell culture assay, HRV serotype 1A. In kind it is cell-based. The note with it: Human rhinovirus sp., H1-HeLa cells, XTT. Here is the method:
(§1) In this cell protection assay, the ability of compounds to protect cells against HRV infection was measured by the XTT dye reduction method, which is described in Weislow et al., J. Natl. Cancer Inst. 1989, vol. 81, 577-586.
(§2) H1-HeLa cells were infected with HRV-14 at a multiplicity of infection (m.o.i.) of 0.13 (virus particles/cell) or mock-infected with medium only. Infected or mock-infected cells were resuspended at 8×10^5 cells per mL, and incubated with appropriate concentrations of the compounds to be tested. Two days later, XTT/PMS was added to test plates and the amount of formazan produced was quantified spectrophotometrically at 450/650 nm. The EC50 value was calculated as the concentration of compound that increased the percentage of formazan production in compound-treated, virus-infected cells to 50% of that produced by compound-free, mock-infected cells. The 50% cytotoxic dose (CC50) was calculated as the concentration of compound that decreased the percentage of formazan produced in compound-treated, mock-infected cells to 50% of that produced by compound-free, mock-infected cells. The therapeutic index (TI) was calculated by dividing the CC50 value by the EC50 value.
(§3) All strains of human rhinovirus (HRV) for use in this assay were purchased from American Type Culture Collection (ATCC), except for HRV serotype-14 (produced from the infectious cDNA clone constructed by Dr. Robert Rueckert, Institute for Molecular Virology, University of Wisconsin, Madison, Wis.). HRV stocks were propagated and viral assays were performed in H1-HeLa cells (ATCC). Cells were grown in minimal essential medium with 10% fetal bovine serum, available from Life Technologies (Gaithersburg, Md.).
(§4) The compounds were tested against control compounds WIN 51711, WIN 52084, and WIN 54954 (obtained from Sterling-Winthrop Pharmaceuticals), Pirodavir (obtained from Janssen Pharmaceuticals), and Pleconaril (prepared according to the method described in Diana et al., J. Med. Chem 1995, vol. 38, 1355). Antiviral data obtained for the test compounds are shown in Tables 1 and 3, where all data are for HRV serotype-14 unless otherwise noted in parentheses.
A general note: Formazan colour is commonly taken as a measure of viable cells.

The next series deals with HRV (89). In words: Antirhinoviral H1-HeLa cell culture assay, HRV serotype 89. Format: cell-based, human rhinovirus. The note with it: H1-HeLa cells, XTT. The protocol:
as §1, §2, §3, §4

Series [1] addresses T1, rhinovirus 3C protease from HRV serotype-14 (Human rhinovirus 14, UniProt P03303).
T1 construct: Recombinant rhinovirus 3C proteases; made in house
In words: Inhibition of rhinovirus 3C protease (FRET assay), serotype 14. In kind it is biochemical. Conditions: HRV serotype-14 3C protease; progress curves in enzyme start experiments; read-out: Protease Inhibition kobs/[I]. The protocol: (§5) Stock solutions (50 mM, in DMSO) of various compounds were prepared; dilutions were in the same solvent. Recombinant rhinovirus 3C proteases (see Birch et al., “Purification of recombinant human rhinovirus 14 3C protease expressed in Escherichia coli,” Protein Expr. Pur. 1995, 6(5), 609-618) from serotypes 14, 16, and 2 were prepared by the following standard chromatographic procedures: (1) ion exchange using Q Sepharose Fast Flow from Pharmacia; (2) affinity chromatography using Affi-Gel Blue from Biorad; and (3) sizing using Sephadex G-100 from Pharmacia. Each assay sample contained 2% DMSO, 50 mM tris pH 7.6, 1 mM EDTA, a test compound at the indicated concentration, approximately 1 μM substrate, and 50-100 nM protease. The kobs/I values were obtained from reactions initiated by addition of enzyme rather than substrate. RVP activity was measured in the fluorescence resonance energy transfer assay. The substrate was (N-terminal) DABCYL-(Gly-Arg-Ala-Val-Phe-Gln-Gly-Pro-Val-Gly)-EDANS. In the uncleaved peptide, the EDANS fluorescence was quenched by the proximal DABCYL moiety. When the peptide was cleaved, the quenching was relieved, and activity was measured as an increase in fluorescence signal. In Table 1, all data are for rhinovirus 3C protease from HRV serotype-14 (produced from the infectious cDNA clone constructed by Dr. Robert Rueckert, Institute for Molecular Virology, University of Wisconsin, Madison, Wis.). […] The data in the column designated kobs/[I] were measured from progress curves in enzyme start experiments.

A further series concerns HRV-14. In words: Antirhinoviral H1-HeLa cell culture assay, HRV-14. The note with it: Rhinovirus B, HRV14, H1-HeLa, HRV serotype-14, H1-HeLa cells. Format: cell-based, human rhinovirus. The protocol: as §1, §2, §3, §4
Another series deals with HRV (2). In words: Antirhinoviral H1-HeLa cell culture assay, HRV serotype 2. The note with it: H1-HeLa cells, XTT. In kind it is cell-based, human rhinovirus. The protocol: as §1, §2, §3, §4
In a further series the test system is HRV (9). The series can be described thus: Antirhinoviral H1-HeLa cell culture assay, HRV serotype 9. Format: cell-based, human rhinovirus. The note with it: H1-HeLa cells, XTT. The protocol:
as §1, §2, §3
(§6) The compounds were tested against control compounds WIN 51711, WIN 52084, and WIN 54954 (obtained from Sterling-Winthrop Pharmaceuticals), Pirodavir (obtained from Janssen Pharmaceuticals), and Pleconaril (prepared according to the method described in Diana et al., J. Med. Chem 1995, vol. 38, 1355). […]

A further series has as its system HRV (39). The series can be described thus: Antirhinoviral H1-HeLa cell culture assay, HRV serotype 39. In kind it is cell-based, human rhinovirus. Conditions: H1-HeLa cells, XTT. The protocol:
as §1, §2, §3, §6

The subject of another series is HRV (13). In words: Antirhinoviral H1-HeLa cell culture assay, HRV serotype 13. In kind it is cell-based, human rhinovirus. The note with it: H1-HeLa cells, XTT. Here is the method: as §1, §2, §3, §6
Another series deals with HRV (17). In words: Antirhinoviral H1-HeLa cell culture assay, HRV serotype 17. Conditions: H1-HeLa cells, XTT. Format: cell-based, human rhinovirus. The protocol: as §1, §2, §3, §6
Another series relates to HRV (3). The series can be described thus: Antirhinoviral H1-HeLa cell culture assay, HRV serotype 3. In kind it is cell-based, human rhinovirus. The note with it: H1-HeLa cells, XTT. Here is the method: as §1, §2, §3, §6
The next series has as its system HRV (10). In words: Antirhinoviral H1-HeLa cell culture assay, HRV serotype 10. The note with it: H1-HeLa cells, XTT. Format: cell-based, human rhinovirus. The protocol:
as §1, §2, §3, §4

The nature of series [2]: Cytotoxicity in mock-infected H1-HeLa cells (antirhinoviral assay, XTT). Format: cell-based. The note with it: human, 50% cytotoxic dose, two days. The protocol:
as §2, §3

The target in series [3] is T2, rhinovirus 3C protease, serotype 2 (Human rhinovirus 2, UniProt P04936).
T2 construct: Recombinant rhinovirus 3C proteases; made in house
T2 sequence (P04936 1508-1690): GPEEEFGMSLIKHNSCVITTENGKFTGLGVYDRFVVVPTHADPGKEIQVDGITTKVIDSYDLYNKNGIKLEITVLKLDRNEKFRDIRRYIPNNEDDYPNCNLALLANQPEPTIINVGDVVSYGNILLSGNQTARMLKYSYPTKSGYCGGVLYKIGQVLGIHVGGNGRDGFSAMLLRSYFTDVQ
The series can be described thus: Inhibition of rhinovirus 3C protease (FRET assay), serotype 2. Conditions: Rhinovirus Serotype (2) 3C protease; read-out: kobs/I. Format: biochemical. The protocol:
as §5

Where [4] appears, read: Table 1, XTT dye reduction, read-out: Cell Protection EC50.

One may read the EC50 as the concentration that produces a half-maximal response. In general, CC50 refers to the concentration that lowers cell viability or growth by half. A low value points to greater toxicity to the cells.

T1 sequence (P03303 1538-1719): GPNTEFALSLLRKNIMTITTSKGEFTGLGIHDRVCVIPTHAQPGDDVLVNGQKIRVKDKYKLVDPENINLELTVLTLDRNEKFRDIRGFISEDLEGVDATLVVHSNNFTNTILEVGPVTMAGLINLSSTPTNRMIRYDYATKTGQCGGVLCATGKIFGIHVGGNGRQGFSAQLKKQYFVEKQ

For the molecule `CCOC(=O)/C=C/[C@H](CCC(N)=O)NC(=O)[C@H](Cc1ccccc1)NC(=O)[C@H](CC(C)C)NC(=O)c1cc(C)on1` [Compound A-1, Ethyl-3-((5′-Methylisoxazole-3′-carbonyl)-L-Leu-L-Phe-L-Gin)-E-Propenoate], the EC50 turned out to be 1 µM in the series on HRV (1A); 0.22 µM with HRV (89) (Human rhinovirus sp.); 0.25 µM in the series with HRV-14 (setting [4]); 0.25 µM in the series with HRV-14 (Table 3, XTT, read-out: EC50); 0.41 µM in the series with HRV (2) (Human rhinovirus sp., H1-HeLa). Further, in series [1], the kinact/KI is 260000 M⁻¹ s⁻¹.
`CCOC(=O)/C=C/[C@H](C[C@@H]1CCNC1=O)NC(=O)[C@H](Cc1ccc(F)cc1)NC(=O)[C@@H](NC(=O)c1cc(C)on1)C(C)(C)C` [Compound A-7, Ethyl-3-{(5′-Methylisoxazole-3′-carbonyl)-L-α-(t-Butyl-Gly)-L-(4-F-Phe)-L-((S)-Pyrrol-Ala)}-E-Provenoate]: the EC50 with HRV (9) came out at 0.04 µM; with HRV (39), 0.02 µM; with HRV (89) it was 0.02 µM; in the series on HRV (13), 0.03 µM; with HRV-14 (setting [4]) it was 0.004 µM; in the series with HRV (17), 0.02 µM. For the same molecule, the EC50 in the series on HRV (3) turned out to be 0.02 µM; in the series on HRV (10) it was 0.06 µM; in the series with HRV (2) it was 0.02 µM. In addition, the kinact/KI in series [1] turned out to be 980000 M⁻¹ s⁻¹.
Take `CCOC(=O)/C=C/[C@H](CCC(N)=O)NC(=O)[C@H](Cc1ccc(C)cc1)NC(=O)[C@@H](NC(=O)C1SCCS1)C(C)(C)C` [Compound A-15]: the EC50 is 7.1 µM with HRV (1A); 0.22 µM in the series with HRV-14 (setting [4]); 0.22 µM with HRV-14 (Table 3, XTT, read-out: EC50); 2.7 µM in the series with HRV (10) (Human rhinovirus sp., H1-HeLa). Further, in series [1], the kinact/KI is 237000 M⁻¹ s⁻¹. The CC50 at 2 days in series [2] is > 100 µM.
With `CCOC(=O)/C=C/[C@H](CCC(N)=O)NC(=O)[C@H](Cc1ccc(C)cc1)NC(=O)[C@@H](NC(=O)c1ccc[nH]1)C(C)(C)C` [Compound A-16], the EC50 with HRV (1A) was found to be 4.8 µM; with HRV-14 (setting [4]), 0.45 µM; in the series on HRV-14 (Table 3, XTT, read-out: EC50), 0.45 µM; with HRV (10) (Human rhinovirus sp., H1-HeLa), 4.5 µM. The kinact/KI in series [1] was 173000 M⁻¹ s⁻¹. Further, the CC50 at 2 days in series [2] was > 100 µM.
With `CCOC(=O)/C=C/[C@H](CCC(N)=O)NC(=O)[C@H](Cc1ccc(F)cc1)NC(=O)[C@@H](NC(=O)C1SCCS1)C(C)(C)C` [Compound A-17], the EC50 with HRV (1A) was found to be 1.8 µM; with HRV-14 (setting [4]) it was 0.06 µM; in the series on HRV-14 (Table 3, XTT, read-out: EC50), 0.06 µM; in the series on HRV (10) (Human rhinovirus sp., H1-HeLa) it was 3.3 µM. The kinact/KI in series [1] came to 167000 M⁻¹ s⁻¹. The CC50 at 2 days in series [2] is > 100 µM.
Regarding `CC(C)[C@H](NC(=O)C1SCCS1)C(=O)N[C@@H](Cc1ccc(F)cc1)C(=O)N[C@H](/C=C/C(=O)OCc1cccnc1)CCC(N)=O` [Compound A-18], the kinact/KI in series [1] turned out to be 292000 M⁻¹ s⁻¹. Further, the EC50 in the series with HRV-14 (setting [4]) was 1.5 µM; in the series on HRV-14 (Table 3, XTT, read-out: EC50), 1.5 µM. Moreover, the 50% cytotoxic concentration (CC50) at 2 days in series [2] was > 100 µM.
Take `CCOC(=O)/C=C/[C@H](CCC(N)=O)NC(=O)[C@H](Cc1ccccc1)NC(=O)[C@H](CC(C)C)NC(=O)[C@@H]1C=CCN1` [Compound A-19]: in series [1], the kinact/KI amounted to 27800 M⁻¹ s⁻¹. Also, the EC50 in the series with HRV-14 (setting [4]) was determined as 25.1 µM; in the series on HRV-14 (Table 3, XTT, read-out: EC50) it was 25.1 µM. In series [2], the CC50 at 2 days is > 100 µM.
As for `CCOC(=O)/C=C/[C@H](CCC(N)=O)NC(=O)[C@H](Cc1ccccc1)NC(=O)[C@H](CC(C)C)NC(=O)c1cc(C)oc1C` [Compound A-20], in series [1], the kinact/KI was 1020 M⁻¹ s⁻¹. For the same molecule, the EC50 is 12.6 µM in the series with HRV-14 (setting [4]) and 12.6 µM in the series with HRV-14 (Table 3, XTT, read-out: EC50). In addition, the CC50 at 2 days in series [2] is > 100 µM.
With `CCOC(=O)/C=C/[C@H](CCC(N)=O)NC(=O)[C@H](Cc1ccccc1)NC(=O)[C@H](CC(C)C)NC(=O)c1nc(C)c[nH]1` [Compound A-21], in series [1], the kinact/KI came to 17800 M⁻¹ s⁻¹. Further, the EC50 was determined as 2.5 µM in the series with HRV-14 (setting [4]) and 2.5 µM in the series with HRV-14 (Table 3, XTT, read-out: EC50). Besides, in series [2], the CC50 at 2 days was > 100 µM.
For `CCOC(=O)/C=C/[C@H](C[C@@H]1CCNC1=O)NC(=O)[C@H](Cc1ccccc1)NC(=O)[C@H](CC(C)C)NC(=O)OCc1ccccc1` [Compound A-24, Ethyl-3-{Cbz-L-Leu-L-Phe-L-((S)-Pyrrol-Ala)}-E-Propenoate], the results for the kinact/KI in [1] and in series [3] were 257000 M⁻¹ s⁻¹ and 31000 M⁻¹ s⁻¹, respectively. The EC50 in the series on HRV-14 (setting [4]) is 0.1 µM; in the series on HRV-14 (Table 3, XTT, read-out: EC50) it was 0.1 µM.
For `CCOC(=O)/C=C/[C@H](CCC(N)=O)NC(=O)[C@@H](CC(=O)[C@@H](NC(=O)c1cc(C)on1)C(C)C)Cc1ccc(F)cc1` [Compound B-1, Ethyl-3-[(5′-Methylisoxazole-3′-carbonyl)-L-ValΨ(COCH2)-L-(4-F-Phe)-L-Gln}-E-Propenoate], the EC50 in the series with HRV (1A) was determined as 0.3 µM; in the series with HRV-14 (setting [4]), 0.1 µM; with HRV-14 (Table 3, XTT, read-out: EC50), 0.1 µM; with HRV (10) (Human rhinovirus sp., H1-HeLa), 0.4 µM. The kinact/KI in series [1] was 240000 M⁻¹ s⁻¹.
